These results are taken from patent US20120121591A1 (priority 2009, published 2012).

Read-outs that look alike come from different tables or passages of the source.

For assay [1], the system named is IL-2 secretion from T cells in human whole blood. It is filed as cell-based. As to conditions: read-out: WB (IL-2) IC50 (nM, Avg).
Assay [2] concerns IFN-g secretion from T cells in human whole blood. It is filed as cell-based.
Setting [3] is: read-out: WB (IFNg) IC50 (nM, Avg).

As for `CC[C@H](C)[C@@H]1NC(=O)[C@@H](NC(=O)[C@H](CO)NC(=O)[C@@H](N)CCCNC(=N)N)CSSC[C@@H](C(=O)O)NC(=O)[C@H]([C@@H](C)O)NC(=O)CNC(=O)[C@@H]2CSSC[C@@H]3NC(=O)[C@H](CCC(N)=O)NC(=O)[C@H](Cc4ccccc4)NC(=O)[C@H](C)NC(=O)[C@H]([C@@H](C)O)NC(=O)[C@H](CSSC[C@H](NC(=O)[C@H](Cc4ccccc4)NC(=O)[C@H](CO)NC(=O)[C@H](CC(C)C)NC(=O)[C@H](CCCNC(=N)N)NC(=O)[C@H](Cc4ccc(O)cc4)NC(=O)[C@H](CCCCN)NC(=O)[C@H](CCSC)NC(=O)[C@H](C)NC(=O)[C@H](Cc4c[nH]cn4)NC(=O)[C@H](CCCCN)NC3=O)C(=O)N[C@@H](CCCNC(=N)N)C(=O)N[C@@H](CCCCN)C(=O)N[C@@H]([C@@H](C)O)C(=O)N2)NC(=O)[C@H](CCCNC(=N)N)NC(=O)[C@H](CO)NC(=O)[C@H](CCCCN)NC(=O)[C@@H]2CCCN2C(=O)[C@H]([C@@H](C)CC)NC(=O)[C@H]([C@@H](C)O)NC(=O)[C@H](CC(=O)O)NC1=O` [[Ala20]ShK], the IC50 in assay [1] is 0.3 nM; in assay [2] (setting [3]), 0.825 nM.
Taken in the same sequence, the figures for `CC[C@H](C)[C@@H]1NC(=O)[C@H]([C@@H](C)O)NC(=O)[C@H](CC(=O)O)NC(=O)[C@H](CCCNC(=N)N)NC(=O)[C@@H](NC(=O)[C@H](CO)NC(=O)[C@@H](N)CCCNC(=N)N)CSSC[C@@H](C(=O)O)NC(=O)[C@H]([C@@H](C)O)NC(=O)CNC(=O)[C@@H]2CSSC[C@@H]3NC(=O)[C@H](CCC(N)=O)NC(=O)[C@H](Cc4ccccc4)NC(=O)[C@H](C)NC(=O)[C@H]([C@@H](C)O)NC(=O)[C@H](CSSC[C@H](NC(=O)[C@H](Cc4ccccc4)NC(=O)[C@H](CO)NC(=O)[C@H](CC(C)C)NC(=O)[C@H](CCCNC(=N)N)NC(=O)[C@H](Cc4ccc(O)cc4)NC(=O)[C@H](CCCCN)NC(=O)[C@H](CCSC)NC(=O)[C@H](CO)NC(=O)[C@H](Cc4c[nH]cn4)NC(=O)[C@H](CCCCN)NC3=O)C(=O)N[C@@H](CCCNC(=N)N)C(=O)N[C@@H](CCCCN)C(=O)N[C@@H]([C@@H](C)O)C(=O)N2)NC(=O)[C@H](CCCNC(=N)N)NC(=O)[C@H](CO)NC(=O)[C@H](CCCCN)NC(=O)[C@@H]2CCCN2C1=O` [[Arg4]ShK] were 0.051 nM and 0.081 nM.
Taken in the same sequence, the figures for `CC[C@H](C)[C@@H]1NC(=O)[C@@H](NC(=O)[C@H](CO)NC(=O)[C@@H](N)CCCNC(=N)N)CSSC[C@@H](C(=O)O)NC(=O)[C@H]([C@@H](C)O)NC(=O)CNC(=O)[C@@H]2CSSC[C@@H]3NC(=O)[C@H](CCC(N)=O)NC(=O)[C@H](Cc4ccccc4)NC(=O)[C@H](C)NC(=O)[C@H]([C@@H](C)O)NC(=O)[C@H](CSSC[C@H](NC(=O)[C@H](Cc4ccccc4)NC(=O)[C@H](CO)NC(=O)[C@H](CC(C)C)NC(=O)[C@H](CCCNC(=N)N)NC(=O)[C@H](Cc4ccc(O)cc4)NC(=O)[C@H](CCCCN)NC(=O)[C@H](CCSC)NC(=O)[C@H](CO)NC(=O)[C@H](Cc4c[nH]cn4)NC(=O)[C@H](CCCNC(=N)N)NC3=O)C(=O)N[C@@H](CCCNC(=N)N)C(=O)N[C@@H](CCCCN)C(=O)N[C@@H]([C@@H](C)O)C(=O)N2)NC(=O)[C@H](CCCNC(=N)N)NC(=O)[C@H](CO)NC(=O)[C@H](CCCCN)NC(=O)[C@@H]2CCCN2C(=O)[C@H]([C@@H](C)CC)NC(=O)[C@H]([C@@H](C)O)NC(=O)[C@H](CC(=O)O)NC1=O` [[Arg18]ShK] were 0.012 nM and 0.023 nM.
Taken in the same sequence, the figures for `CC[C@H](C)[C@@H]1NC(=O)[C@@H](NC(=O)[C@H](CO)NC(=O)[C@@H](N)CCCNC(=N)N)CSSC[C@@H](C(=O)O)NC(=O)[C@H](CCCNC(=N)N)NC(=O)CNC(=O)[C@@H]2CSSC[C@@H]3NC(=O)[C@H](CCC(N)=O)NC(=O)[C@H](Cc4ccccc4)NC(=O)[C@H](C)NC(=O)[C@H]([C@@H](C)O)NC(=O)[C@H](CSSC[C@H](NC(=O)[C@H](Cc4ccccc4)NC(=O)[C@H](CO)NC(=O)[C@H](CC(C)C)NC(=O)[C@H](CCCNC(=N)N)NC(=O)[C@H](Cc4ccc(O)cc4)NC(=O)[C@H](CCCCN)NC(=O)[C@H](CCSC)NC(=O)[C@H](CO)NC(=O)[C@H](Cc4c[nH]cn4)NC(=O)[C@H](CCCCN)NC3=O)C(=O)N[C@@H](CCCNC(=N)N)C(=O)N[C@@H](CCCCN)C(=O)N[C@@H]([C@@H](C)O)C(=O)N2)NC(=O)[C@H](CCCNC(=N)N)NC(=O)[C@H](CO)NC(=O)[C@H](CCCCN)NC(=O)[C@@H]2CCCN2C(=O)[C@H]([C@@H](C)CC)NC(=O)[C@H]([C@@H](C)O)NC(=O)[C@H](CC(=O)O)NC1=O` [[Arg34]ShK] were 0.418 nM and 0.486 nM.
As to `CCCC[C@@H]1NC(=O)[C@H](CO)NC(=O)[C@H](Cc2c[nH]cn2)NC(=O)[C@H](CCC(=O)O)NC(=O)[C@@H]2CSSC[C@@H]3NC(=O)[C@H]([C@@H](C)O)NC(=O)[C@H](CCCNC(=N)N)NC(=O)[C@H](CCCNC(=N)N)NC(=O)[C@H](CSSC[C@H](NC(=O)[C@H](CCCNC(=N)N)NC(=O)[C@H](CO)NC(=O)[C@H](CCCCN)NC(=O)[C@@H]4CCCN4C(=O)[C@H]([C@@H](C)CC)NC(=O)[C@H]([C@@H](C)O)NC(=O)[C@H](CC(=O)O)NC(=O)[C@H](CCC(=O)O)NC(=O)[C@@H](NC(=O)[C@H](CO)NC(=O)[C@@H](N)CCCNC(=N)N)CSSC[C@@H](C(N)=O)NC(=O)[C@H]([C@@H](C)O)NC(=O)CNC3=O)C(=O)N[C@@H]([C@@H](C)O)C(=O)N[C@@H](C)C(=O)N[C@@H](Cc3ccccc3)C(=O)N[C@@H](CCCCN)C(=O)N2)NC(=O)[C@H](Cc2ccccc2)NC(=O)[C@H](CO)NC(=O)[C@H](CC(C)C)NC(=O)[C@H](CCCNC(=N)N)NC(=O)[C@H](Cc2ccc(O)cc2)NC(=O)[C@H](CCCCN)NC1=O` [[Glu4,18, Lys16,Nle21, Arg30]ShK-amide], the IC50 in assay [1] came to 0.97 nM; in assay [2] (setting [3]) it was 1.99 nM.
As to `CC[C@H](C)[C@@H]1NC(=O)[C@@H](NC(=O)[C@H](CO)NC(=O)[C@@H](N)CCCNC(=N)N)CSSC[C@@H](C(=O)O)NC(=O)[C@H]([C@@H](C)O)NC(=O)CNC(=O)[C@@H]2CSSC[C@@H]3NC(=O)[C@H](CCC(N)=O)NC(=O)[C@H](Cc4ccccc4)NC(=O)[C@H](CCC(=O)O)NC(=O)[C@H]([C@@H](C)O)NC(=O)[C@H](CSSC[C@H](NC(=O)[C@H](Cc4ccccc4)NC(=O)[C@H](CO)NC(=O)[C@H](CC(C)C)NC(=O)[C@H](CCCNC(=N)N)NC(=O)[C@H](Cc4ccc(O)cc4)NC(=O)[C@H](CCCCN)NC(=O)[C@H](CCSC)NC(=O)[C@H](CO)NC(=O)[C@H](Cc4c[nH]cn4)NC(=O)[C@H](CCCCN)NC3=O)C(=O)N[C@@H](CCCNC(=N)N)C(=O)N[C@@H](CCCCN)C(=O)N[C@@H]([C@@H](C)O)C(=O)N2)NC(=O)[C@H](CCCNC(=N)N)NC(=O)[C@H](CO)NC(=O)[C@H](CCCCN)NC(=O)[C@@H]2CCCN2C(=O)[C@H]([C@@H](C)CC)NC(=O)[C@H]([C@@H](C)O)NC(=O)[C@H](CC(=O)O)NC1=O` [[Glu14]ShK], the IC50 in assay [1] was 0.035 nM; in assay [2] (read-out: WB (IFNg) IC5- (nM, Avg)), 0.132 nM.
